Reference: US10798893B2, “Induced chromosome doubling in plants” (Dow AgroSciences LLC, priority 2009, dated 2020)
Read-outs that look alike come from different tables or passages of the source.

What was measured:
[1] = test system: haploid germinated maize seedlings
Excerpt: An exemplary cycloalkene, 1,2,3-Trimethoxy-4-(1S,6R)-6-nitro-cyclohex-3-enyl)-benzene, designated as compound 1 was used to determine double haploid efficiency, doubling rate by a coleoptile tip cutting, seedling soaking method. […] Data provided in Tables 1, 2 and 3 were generated using haploid seeds obtained through cross pollination of a maize line of interest with an inducer maize line.
The resulting maize seeds were sorted based on marker gene color.
Coleoptile tips in maize seedlings were cut and the seedlings were soaked in various chromosome doubling agents as shown in Table 1. Haploid maize seeds were germinated and the coleoptile tips were excised (1-2 mm). Seedlings that survived were transplanted and grown until tassels and silk formed. Plants that produced tassels and silk were self-pollinated. Seeds produced from the self-pollination were visually assessed for the marker to identify them as double haploid (dihaploid).

[2] = test system: germinated haploid maize seedlings; experiment: Foliar spray treatment of germinated haploid maize seedlings in soil at V1-V3 stage; assay type: in vivo
Experimental: Haploid maize seeds were planted in Sun Gro METRO-MIX® 306 planting mixture, which typically has a pH of 6.0 to 6.8 and an organic matter content of about 30 percent, in 72-well, plastic propagation flats (Dillen Products; Middlefield Ohio). When required to ensure good germination and healthy plants, a fungicide treatment and/or other chemical or physical treatment was applied. The plants were grown in a greenhouse with an approximate 15 hour photoperiod which was maintained at about 23-29° C. during the day and 22-28° C. during the night until they reached the V1-V3 growth stage. Nutrients and water were added on a regular basis and supplemental lighting was provided with overhead metal halide 1000-Watt lamps as necessary.
A weighed amount of compound 1, determined by the rate to be tested, was dissolved in 1.2 mL of dimethyl sulfoxide (DMSO) to obtain concentrated stock solutions. […] The concentrated stock solutions obtained were diluted with 10.8 mL of an aqueous mixture containing 1.25% v/v (volume/volume) Agri-dex Crop Oil Concentrate. Compound requirements are based upon a 12 mL application volume at a rate of 187 L/ha. Formulated compounds were applied to the plant material with an overhead Mandel track sprayer equipped with a 8002E nozzle calibrated to deliver 187 L/ha over an application area of 0.503 square meter at a spray height of 18 inches ([…]) above the average plant canopy height. Control plants were sprayed in the same manner with the solvent blank.
The treated plants and control plants were placed in a greenhouse, as described above, and watered by sub-irrigation to prevent wash-off of the test compounds. Approximately 14 days after treatment, the treated plants were transplanted to individual pots containing Sun Gro METRO-MIX® 360. Plants that produced tassels and silk were then self-pollinated to obtain dihaploid seed.
Table 3 illustrates the results of doubling rate after spray treatment with the chemicals of interest. […] The spray treated plant tassels and silks were synchronized well and the plants shed more pollen.

rabbit = conditions: cited from earlier work
rats = experiment: Dermal toxicity on rats; assay type: in vivo, rat; conditions: 200 mg/kg
[3] = after transplanting, rate 25 μM
[4] = after transplanting, rate 125 μM
[5] = seedling soak, colchicine 0.06% w/v (rate cell empty)

SMILES: CC(C)OC(=O)Nc1cccc(Cl)c1 [Chlorpropham, chlorpropham]
- No. plants dead after TP ([1]; after transplanting, rate 5 μM): 0
- No. plants dead after TP [1, 3]: 0
- No. plants dead after TP [1, 4]: 0
- # plants dead after treatment ([2]; spray, 70 g ai/ha): 0
- # plants dead after treatment ([2]; spray, 280 g ai/ha): 1

SMILES: COc1cc2c(c(OC)c1OC)-c1ccc(OC)c(=O)cc1[C@@H](NC(C)=O)CC2 [Colchicine, colchicine]
- No. plants dead after TP ([1]; after transplanting, colchicine 0.06% w/v (rate cell empty)): 0
- No. plants alive [1, 5]: 38
- No. plants dead [1, 5]: 27
- Eye irritation (rabbit): about 1 %/3D

SMILES: COc1ccc([C@@H]2CC=CC[C@H]2[N+](=O)[O-])c(OC)c1OC [Compound 1, 1,2,3-Trimethoxy-4-((1S,6R)-6-nitro-cyclohex-3-enyl)-benzene]
- No. plants dead after TP ([1]; maize, in vivo, 5 μM): 2
- No. plants dead after TP ([1]; maize, in vivo, 25 μM): 2
- No. plants dead after TP ([1]; maize, in vivo, 125 μM): 2
- dermal toxicity (rats): No dermal toxicity was observed
- # plants dead after treatment ([2]; maize, in vivo): 0

SMILES: C#CC(C)(C)NC(=O)c1cc(Cl)cc(Cl)c1 [Pronamide, pronamide]
- No. plants dead after TP ([1]; after transplanting, rate 5 μM): 3
- No. plants dead after TP [1, 3]: 1
- No. plants dead after TP [1, 4]: 0
- # plants dead after treatment ([2]; spray, 35 g ai/ha): 0
- # plants dead after treatment ([2]; spray, 140 g ai/ha): 0
